Results taken from ChEMBL document CHEMBL4665705 (J Med Chem, 2020).
≈ marks a conversion by molar mass, not a printed value.

Legend:
physchem = conditions: phosphate buffered saline, pH 7.4
[1] = molecular target: Bromodomain-containing protein 4 (Homo sapiens, UniProt O60885, Y97A)
in vitro = conditions: PAMPA, pH 7.4
[2] = buffer, pH 7.4
[3] = molecular target: Bromodomain-containing protein 4 (Homo sapiens, UniProt O60885, Y390A)
[4] = Genotoxicity in Salmonella typhimurium TA1537 in presence of S9 fraction by Ames test; format: toxicity, subcellular; conditions: salmonella enterica subsp. enterica serovar typhimurium
[5] = Genotoxicity in Salmonella typhimurium TA98 in presence of S9 fraction by Ames test; format: toxicity, subcellular; conditions: salmonella enterica subsp. enterica serovar typhimurium
[6] = Genotoxicity in Salmonella typhimurium TA100 in presence of S9 fraction by Ames test; format: toxicity, subcellular; conditions: salmonella enterica subsp. enterica serovar typhimurium
[7] = Genotoxicity in Salmonella typhimurium TA1535 in absence of S9 fraction by Ames test; format: toxicity; conditions: salmonella enterica subsp. enterica serovar typhimurium
[8] = Genotoxicity in Salmonella typhimurium TA98 in absence of S9 fraction by Ames test; format: toxicity; conditions: salmonella enterica subsp. enterica serovar typhimurium
[9] = Genotoxicity in Salmonella typhimurium TA100 in absence of S9 fraction by Ames test; format: toxicity; conditions: salmonella enterica subsp. enterica serovar typhimurium
[10] = Genotoxicity in Escherichia coli WP2uvrA in absence of S9 fraction by Ames test; format: toxicity
[11] = Genotoxicity in Salmonella typhimurium TA1537 in absence of S9 fraction by Ames test; format: toxicity; conditions: salmonella enterica subsp. enterica serovar typhimurium
[12] = Genotoxicity in Escherichia coli WP2uvrA in presence of S9 fraction by Ames test; format: toxicity, subcellular
[13] = Genotoxicity in Salmonella typhimurium TA1535 in presence of S9 fraction by Ames test; format: toxicity, subcellular; conditions: salmonella enterica subsp. enterica serovar typhimurium
[14] = Drug metabolism in human liver S9 fraction assessed as deacetylation to aniline at 10 uM incubated for 120 mins by FTMS analysis; format: ADME, subcellular; conditions: s9, 2 h
[15] = Drug metabolism in rat liver S9 fraction assessed as deacetylation to aniline at 10 uM incubated for 120 mins by FTMS analysis; format: ADME, subcellular; conditions: s9, 2 h

SMILES: CC(=O)Nc1ccc(C(=O)NC2CCOCC2)cc1O[C@H](C)c1ccccc1
- solubility kinetic (physchem): 159 µg/mL (≈ 416 µM)
- IC50 [1]: 12.6 µM
- Papp (in vitro): 30 ×10⁻⁶ cm/s
- CHI [2]: 3.8
- IC50 [3]: > 50.1 µM

SMILES: Nc1c(O)cc(C(=O)O)cc1F
- Activity [4]: Non-Toxic
- Activity [5]: Non-Toxic
- Activity [6]: Non-Toxic
- Activity [7]: Non-Toxic
- Activity [8]: Non-Toxic
- Activity [9]: Non-Toxic
- Activity [10]: Toxic
- Activity [11]: Non-Toxic
- Activity [12]: Toxic
- Activity [13]: Non-Toxic

SMILES: CC(=O)Nc1ccc(C(=O)NCCCN)cc1OCc1cccc(Cl)c1
- solubility kinetic (physchem): 96 µg/mL (≈ 255 µM)
- Papp (in vitro): 1.1 ×10⁻⁶ cm/s
- CHI [2]: 2.1

SMILES: CC(=O)Nc1ccc(C(=O)NCCCN)cc1OCc1ccc(C(N)=O)cc1
- solubility kinetic (physchem): 151 µg/mL (≈ 393 µM)
- IC50 [1]: 10 µM
- Papp (in vitro): < 0.3 ×10⁻⁶ cm/s
- CHI [2]: 0
- IC50 [3]: > 50.1 µM

SMILES: CC(=O)Nc1ccc(C(=O)NCCCO)cc1OCc1ccccc1
- solubility kinetic (physchem): 109 µg/mL (≈ 318 µM)
- IC50 [1]: 3.98 µM
- Papp (in vitro): 9.4 ×10⁻⁶ cm/s
- CHI [2]: 2.4
- IC50 [3]: > 50.1 µM

SMILES: CC(=O)Nc1ccc(C(=O)NCCC2CCOCC2)cc1OCc1ccccc1
- solubility kinetic (physchem): 200 µg/mL (≈ 504 µM)
- IC50 [1]: 1.58 µM
- Papp (in vitro): 10.4 ×10⁻⁶ cm/s
- CHI [2]: 4
- IC50 [3]: > 50.1 µM

SMILES: CC(=O)Nc1ccc(C(=O)N[C@H]2CC[C@H](O)CC2)cc1OCc1ccccc1
- solubility kinetic (physchem): 174 µg/mL (≈ 455 µM)
- IC50 [1]: 1.26 µM
- Papp (in vitro): 7.9 ×10⁻⁶ cm/s
- CHI [2]: 2.7
- IC50 [3]: > 50.1 µM

SMILES: CC(=O)Nc1ccc(C(=O)NC2CCOCC2)cc1OCc1ccccc1
- solubility kinetic (physchem): 155 µg/mL (≈ 421 µM)
- IC50 [1]: 2 µM
- Papp (in vitro): 19 ×10⁻⁶ cm/s
- CHI [2]: 3.3
- IC50 [3]: > 50.1 µM

SMILES: CC(=O)Nc1ccc(C(=O)NCC2CCNCC2)cc1OCc1ccccc1
- solubility kinetic (physchem): < 3 µg/mL
- IC50 [1]: 0.794 µM
- Papp (in vitro): 17 ×10⁻⁶ cm/s
- CHI [2]: 1.7
- IC50 [3]: > 50.1 µM

SMILES: CC(=O)Nc1ccc(C(=O)NCCCN)cc1OCc1cccnc1
- solubility kinetic (physchem): 130 µg/mL (≈ 380 µM)
- IC50 [1]: 15.8 µM
- Papp (in vitro): < 0.3 ×10⁻⁶ cm/s
- CHI [2]: 0.2
- IC50 [3]: > 50.1 µM

SMILES: CC(=O)Nc1ccc(C(=O)NCCCN)cc1OCc1ccc(Cl)cc1
- solubility kinetic (physchem): 108 µg/mL (≈ 287 µM)
- IC50 [1]: 2 µM
- Papp (in vitro): < 0.3 ×10⁻⁶ cm/s
- CHI [2]: 2.2
- IC50 [3]: 25.1 µM

SMILES: CC(=O)Nc1ccc(C(=O)NCCCN)cc1OCc1ccccc1Cl
- solubility kinetic (physchem): 124 µg/mL (≈ 330 µM)
- IC50 [1]: 2.51 µM
- Papp (in vitro): 1.5 ×10⁻⁶ cm/s
- CHI [2]: 1.9
- IC50 [3]: 39.8 µM

SMILES: CC(=O)Nc1ccc(C(=O)NCCO)cc1OCc1ccccc1
- solubility kinetic (physchem): 162 µg/mL (≈ 493 µM)
- IC50 [1]: 5.01 µM
- Papp (in vitro): 6.8 ×10⁻⁶ cm/s
- CHI [2]: 2.3
- IC50 [3]: > 50.1 µM

SMILES: CCNC(=O)c1cc(OCc2ccccc2)c(NC(C)=O)cc1F
- solubility kinetic (physchem): 159 µg/mL (≈ 481 µM)
- IC50 [1]: 1.58 µM
- Papp (in vitro): 67 ×10⁻⁶ cm/s
- CHI [2]: 4.4
- IC50 [3]: > 50.1 µM

SMILES: COc1ccc(COc2cc(C(=O)NCCCN)ccc2NC(C)=O)cc1
- solubility kinetic (physchem): 114 µg/mL (≈ 307 µM)
- IC50 [1]: 2.51 µM
- Papp (in vitro): < 0.3 ×10⁻⁶ cm/s
- CHI [2]: 1.3
- IC50 [3]: 39.8 µM

SMILES: CC(=O)Nc1ccc(C(=O)NCCCN)cc1OCc1ccc(C(C)C)cc1
- solubility kinetic (physchem): 114 µg/mL (≈ 297 µM)
- Papp (in vitro): 0.77 ×10⁻⁶ cm/s
- CHI [2]: 3.1

SMILES: CC(=O)Nc1ccc(C(=O)NCCCN)cc1OCc1ccccc1
- solubility kinetic (physchem): 123 µg/mL (≈ 360 µM)
- IC50 [1]: 1.58 µM
- Papp (in vitro): < 0.3 ×10⁻⁶ cm/s
- CHI [2]: 1.6
- IC50 [3]: 31.6 µM

SMILES: CC(=O)Nc1ccc(C(=O)N[C@H]2CC[C@H](O)CC2)cc1O[C@@H](C)c1ccccc1
- solubility kinetic (physchem): 170 µg/mL (≈ 429 µM)
- IC50 [1]: 0.158 µM
- Papp (in vitro): 9.3 ×10⁻⁶ cm/s
- CHI [2]: 3.1
- IC50 [3]: 39.8 µM

SMILES: CCNC(=O)c1ccc(NC(C)=O)c(OCc2ccccc2)c1
- solubility kinetic (physchem): 143 µg/mL (≈ 458 µM)
- IC50 [1]: 6.31 µM
- Papp (in vitro): 32 ×10⁻⁶ cm/s
- CHI [2]: 3.5
- IC50 [3]: > 50.1 µM

SMILES: C[C@H](Oc1cc(C(=O)N[C@H]2CC[C@H](O)CC2)ccc1N)c1ccccc1
- Activity [4]: Non-Toxic
- Activity [5]: Non-Toxic
- Activity [6]: Non-Toxic
- Activity [7]: Non-Toxic
- Activity [8]: Non-Toxic
- Activity [9]: Non-Toxic
- Activity [10]: Non-Toxic
- Activity [11]: Non-Toxic
- Activity [12]: Non-Toxic
- Activity [13]: Non-Toxic

SMILES: CC(=O)Nc1ccc(C(=O)NCCCN)cc1OCc1ccncc1
- solubility kinetic (physchem): 112 µg/mL (≈ 327 µM)
- Papp (in vitro): 0.3 ×10⁻⁶ cm/s
- CHI [2]: 0.1

SMILES: CC(=O)Nc1ccccc1OCc1ccccc1
- solubility kinetic (physchem): 113 µg/mL (≈ 468 µM)
- Papp (in vitro): 78 ×10⁻⁶ cm/s
- CHI [2]: 4.9

SMILES: CC(=O)Nc1ccc(C(=O)NCCCN)cc1OCC1CCOCC1
- solubility kinetic (physchem): 144 µg/mL (≈ 412 µM)
- IC50 [1]: > 50.1 µM
- Papp (in vitro): < 0.3 ×10⁻⁶ cm/s
- CHI [2]: 0.4
- IC50 [3]: > 50.1 µM

SMILES: CC(=O)Nc1ccc(C(=O)NCCCN)cc1OCc1ccccn1
- solubility kinetic (physchem): 80 µg/mL (≈ 234 µM)
- IC50 [1]: 10 µM
- Papp (in vitro): < 0.3 ×10⁻⁶ cm/s
- CHI [2]: 0.3
- IC50 [3]: > 50.1 µM

SMILES: CCNC(=O)c1cc(F)c(NC(C)=O)c(OCc2ccccc2)c1
- solubility kinetic (physchem): 18 µg/mL (≈ 54.5 µM)
- IC50 [1]: 1 µM
- Papp (in vitro): 11 ×10⁻⁶ cm/s
- CHI [2]: 3.1
- IC50 [3]: > 50.1 µM

SMILES: CC(=O)Nc1ccc(C(=O)NCC2CCOCC2)cc1OCc1ccccc1
- solubility kinetic (physchem): 174 µg/mL (≈ 455 µM)
- IC50 [1]: 2.51 µM
- Papp (in vitro): 19 ×10⁻⁶ cm/s
- CHI [2]: 3.5
- IC50 [3]: > 50.1 µM

SMILES: CC(=O)Nc1ccc(C(=O)NCCc2cnc[nH]2)cc1OCc1ccccc1
- solubility kinetic (physchem): 125 µg/mL (≈ 330 µM)
- Papp (in vitro): 0.8 ×10⁻⁶ cm/s
- CHI [2]: 2.2

SMILES: CCNC(=O)c1ccc(NC(C)=O)c(OCc2ccccc2)c1F
- solubility kinetic (physchem): 119 µg/mL (≈ 360 µM)
- IC50 [1]: 20 µM
- Papp (in vitro): 46 ×10⁻⁶ cm/s
- CHI [2]: 2.5
- IC50 [3]: > 50.1 µM

SMILES: CC(=O)Nc1ccc(C(=O)NC2CCOCC2)cc1O[C@@H](C)c1ccccc1
- Drug metabolism [14]: Metabolite_Detected
- Drug metabolism [15]: Metabolite_Detected
- solubility kinetic (physchem): 215 µg/mL (≈ 562 µM)
- IC50 [1]: 0.251 µM
- Papp (in vitro): 34 ×10⁻⁶ cm/s
- CHI [2]: 3.7
- IC50 [3]: 31.6 µM

SMILES: CC(=O)Nc1ccc(C(=O)NCCCN)cc1OCc1ccc(C)cc1
- solubility kinetic (physchem): 114 µg/mL (≈ 321 µM)
- IC50 [1]: 2 µM
- Papp (in vitro): 0.65 ×10⁻⁶ cm/s
- CHI [2]: 2
- IC50 [3]: 31.6 µM

SMILES: CC(=O)Nc1ccc(C(=O)NCCCN)cc1OC(C)c1ccccc1 (racemic)
- solubility kinetic (physchem): 159 µg/mL (≈ 447 µM)
- IC50 [1]: 0.501 µM
- Papp (in vitro): < 0.3 ×10⁻⁶ cm/s
- CHI [2]: 1.7
- IC50 [3]: 20 µM
